According to the NIST ThermoML archive (doi:10.1016/j.fluid.2014.07.036):
± gives the expanded uncertainty stated by the source.

Test: refractive index (other wavelength) (dimensionless); xn = mol fraction of the nth substance listed
Details: 85 kPa, Liquid, Wavelength=632.8 nm, minimum deviation angle

CCCCCCO [hexan-1-ol] + CCCCCCCC[n+]1ccn(C)c1.F[B-](F)(F)F
x2 = 0
Details	refractive index
293.99 K	1.4165 ± 0.0002
295.93 K	1.4156 ± 0.0002
297.36 K	1.4151 ± 0.0002
298.94 K	1.4145 ± 0.0002
300.69 K	1.4138 ± 0.0002
303.34 K	1.4128 ± 0.0002
304.77 K	1.4122 ± 0.0002
306.24 K	1.4117 ± 0.0002

CCCCCCCC[n+]1ccn(C)c1.F[B-](F)(F)F [1-methyl-3-octylimidazolium tetrafluoroborate] + CCCCCO
Details	refractive index
281.39 K, x1 = 0.012	1.4139 ± 0.0003
281.39 K, x1 = 0.339	1.4262 ± 0.0003
282.13 K, x1 = 0.014	1.4137 ± 0.0003
282.13 K, x1 = 0.33	1.4257 ± 0.0003
282.87 K, x1 = 0.015	1.4135 ± 0.0003
282.87 K, x1 = 0.32	1.4252 ± 0.0003
283.57 K, x1 = 0.018	1.4134 ± 0.0003
283.57 K, x1 = 0.315	1.4248 ± 0.0003
284.24 K, x1 = 0.019	1.4132 ± 0.0003
284.24 K, x1 = 0.305	1.4243 ± 0.0003
284.89 K, x1 = 0.02	1.413 ± 0.0003
284.89 K, x1 = 0.295	1.4238 ± 0.0003
285.51 K, x1 = 0.021	1.4128 ± 0.0003
285.51 K, x1 = 0.285	1.4233 ± 0.0003
286.09 K, x1 = 0.021	1.4126 ± 0.0003
286.09 K, x1 = 0.278	1.4229 ± 0.0003
286.64 K, x1 = 0.023	1.4125 ± 0.0003
286.64 K, x1 = 0.268	1.4224 ± 0.0003
287.13 K, x1 = 0.025	1.4124 ± 0.0003
287.13 K, x1 = 0.257	1.4219 ± 0.0003
287.58 K, x1 = 0.026	1.4123 ± 0.0003
287.58 K, x1 = 0.246	1.4214 ± 0.0003
287.98 K, x1 = 0.029	1.4123 ± 0.0003
287.98 K, x1 = 0.238	1.421 ± 0.0003
288.34 K, x1 = 0.03	1.4122 ± 0.0003
288.34 K, x1 = 0.23	1.4206 ± 0.0003
288.64 K, x1 = 0.032	1.4122 ± 0.0003
288.64 K, x1 = 0.224	1.4203 ± 0.0003
288.88 K, x1 = 0.034	1.4122 ± 0.0003
288.88 K, x1 = 0.217	1.42 ± 0.0003
289.09 K, x1 = 0.035	1.4122 ± 0.0003
289.09 K, x1 = 0.214	1.4198 ± 0.0002
289.29 K, x1 = 0.038	1.4123 ± 0.0003
289.29 K, x1 = 0.207	1.4195 ± 0.0003
289.44 K, x1 = 0.039	1.4123 ± 0.0003
289.44 K, x1 = 0.203	1.4193 ± 0.0002
289.63 K, x1 = 0.041	1.4123 ± 0.0003
289.63 K, x1 = 0.196	1.419 ± 0.0002
289.73 K, x1 = 0.042	1.4123 ± 0.0003
289.73 K, x1 = 0.191	1.4188 ± 0.0002
289.86 K, x1 = 0.044	1.4124 ± 0.0003
289.86 K, x1 = 0.19	1.4187 ± 0.0003
289.98 K, x1 = 0.047	1.4125 ± 0.0003
289.98 K, x1 = 0.186	1.4185 ± 0.0002
290.07 K, x1 = 0.05	1.4126 ± 0.0003
290.07 K, x1 = 0.181	1.4183 ± 0.0003
290.16 K, x1 = 0.052	1.4127 ± 0.0003
290.16 K, x1 = 0.179	1.4182 ± 0.0003
290.25 K, x1 = 0.055	1.4128 ± 0.0003
290.25 K, x1 = 0.175	1.418 ± 0.0003
290.31 K, x1 = 0.059	1.413 ± 0.0003
290.31 K, x1 = 0.173	1.4179 ± 0.0002
290.38 K, x1 = 0.062	1.4131 ± 0.0003
290.38 K, x1 = 0.168	1.4177 ± 0.0002
290.43 K, x1 = 0.066	1.4133 ± 0.0003
290.43 K, x1 = 0.166	1.4176 ± 0.0003
290.49 K, x1 = 0.069	1.4134 ± 0.0003
290.49 K, x1 = 0.161	1.4174 ± 0.0003
290.49 K, x1 = 0.598	1.4284 ± 0.0002
290.5 K, x1 = 1	1.4338 ± 0.0003
290.52 K, x1 = 0.071	1.4135 ± 0.0003
290.52 K, x1 = 0.156	1.4172 ± 0.0003
290.56 K, x1 = 0.076	1.4137 ± 0.0003
290.56 K, x1 = 0.1	1.4148 ± 0.0002
290.56 K, x1 = 0.151	1.417 ± 0.0003
290.59 K, x1 = 0.797	1.4313 ± 0.0003
290.59 K, x1 = 0.898	1.4327 ± 0.0003
290.6 K, x1 = 0.078	1.4138 ± 0.0003
290.6 K, x1 = 0.147	1.4168 ± 0.0003
290.61 K, x1 = 0.08	1.4139 ± 0.0003
290.61 K, x1 = 0.144	1.4167 ± 0.0003
290.65 K, x1 = 0.085	1.4141 ± 0.0003
290.65 K, x1 = 0.137	1.4164 ± 0.0003
290.66 K, x1 = 0.087	1.4142 ± 0.0003
290.66 K, x1 = 0.132	1.4162 ± 0.0003
290.67 K, x1 = 0.089	1.4143 ± 0.0003
290.67 K, x1 = 0.091	1.4144 ± 0.0003
290.67 K, x1 = 0.128	1.416 ± 0.0003
290.67 K, x1 = 0.13	1.4161 ± 0.0003
290.67 K, x1 = 0.697	1.4299 ± 0.0003
290.68 K, x1 = 0.094	1.4145 ± 0.0003
290.68 K, x1 = 0.096	1.4146 ± 0.0003
290.68 K, x1 = 0.098	1.4147 ± 0.0003
290.68 K, x1 = 0.118	1.4156 ± 0.0003
290.68 K, x1 = 0.121	1.4157 ± 0.0003
290.68 K, x1 = 0.123	1.4158 ± 0.0003
290.68 K, x1 = 0.125	1.4159 ± 0.0003
290.76 K, x1 = 0.498	1.4264 ± 0.0002
290.93 K, x1 = 0.396	1.4243 ± 0.0002
290.95 K, x1 = 0.2	1.4185 ± 0.0002
291.87 K, x1 = 1	1.4334 ± 0.0003
292.22 K, x1 = 0.898	1.4322 ± 0.0003
292.28 K, x1 = 0.598	1.4279 ± 0.0002
292.3 K, x1 = 0.797	1.4308 ± 0.0003
292.33 K, x1 = 0.498	1.4259 ± 0.0002
292.39 K, x1 = 0.697	1.4294 ± 0.0003
292.67 K, x1 = 0.396	1.4237 ± 0.0002
292.68 K, x1 = 0.2	1.4179 ± 0.0002
292.95 K, x1 = 0.1	1.414 ± 0.0002
293.43 K, x1 = 1	1.433 ± 0.0003
294.01 K, x1 = 0.498	1.4253 ± 0.0002
294.06 K, x1 = 0.898	1.4317 ± 0.0003
294.07 K, x1 = 0.598	1.4273 ± 0.0002
294.09 K, x1 = 0.797	1.4303 ± 0.0003
294.12 K, x1 = 0.697	1.4289 ± 0.0003
294.44 K, x1 = 0.396	1.423 ± 0.0002
294.76 K, x1 = 0.2	1.4171 ± 0.0002
295.04 K, x1 = 0.1	1.4132 ± 0.0002
295.05 K, x1 = 1	1.4325 ± 0.0003
295.73 K, x1 = 0.498	1.4248 ± 0.0002
295.84 K, x1 = 0.598	1.4268 ± 0.0002
295.89 K, x1 = 0.898	1.4312 ± 0.0003
295.91 K, x1 = 0.797	1.4299 ± 0.0003
295.92 K, x1 = 0.697	1.4283 ± 0.0003
296.31 K, x1 = 0.396	1.4224 ± 0.0002
296.55 K, x1 = 0.2	1.4165 ± 0.0002
296.68 K, x1 = 1	1.4321 ± 0.0003
297.32 K, x1 = 0.1	1.4124 ± 0.0002
297.61 K, x1 = 0.797	1.4294 ± 0.0003
297.68 K, x1 = 0.697	1.4278 ± 0.0003
297.69 K, x1 = 0.498	1.4241 ± 0.0002
297.71 K, x1 = 0.598	1.4262 ± 0.0002
297.84 K, x1 = 0.898	1.4306 ± 0.0003
298.31 K, x1 = 0.396	1.4217 ± 0.0002
298.41 K, x1 = 1	1.4316 ± 0.0003
298.67 K, x1 = 0.2	1.4158 ± 0.0002
299.26 K, x1 = 0.1	1.4116 ± 0.0002
299.58 K, x1 = 0.697	1.4273 ± 0.0003
299.58 K, x1 = 0.797	1.4288 ± 0.0003
299.74 K, x1 = 0.498	1.4235 ± 0.0002
299.74 K, x1 = 0.598	1.4256 ± 0.0002
299.92 K, x1 = 0.898	1.43 ± 0.0003
300.25 K, x1 = 1	1.4311 ± 0.0003
300.61 K, x1 = 0.396	1.4209 ± 0.0002
300.68 K, x1 = 0.2	1.4151 ± 0.0002
301.73 K, x1 = 0.1	1.4107 ± 0.0002
302.04 K, x1 = 1	1.4305 ± 0.0003

CCCCCO [pentan-1-ol] + CCCCCCCC[n+]1ccn(C)c1.F[B-](F)(F)F
x2 = 0
Details	refractive index
290.68 K	1.4096 ± 0.0002
292.95 K	1.4087 ± 0.0002
295.03 K	1.4079 ± 0.0002
297.17 K	1.4071 ± 0.0002
299.35 K	1.4062 ± 0.0002
301.73 K	1.4053 ± 0.0002
